Source: patent US20260138958A1, “SUBSTITUTED N-PHENYLURACILS AND SALTS THEREOF, AND USE THEREOF AS HERBICIDAL ACTIVE SUBSTANCES” (Bayer Aktiengesellschaft, priority 2022, published 2026)

What was measured:
Assay type in all cases: in vivo
[1] = system: Abutilon theophrasti (ABUTH); experiment: Post-emergence herbicidal action, greenhouse pot test; conditions: for pest or weed control at 5 g/ha / pest or weed control at 20 g/ha: Abutilon theophrasti, 504 h; for pest or weed control at 5 g/ha: read-out: Post-emergence effect at 5 g/ha against ABUTH in %; for pest or weed control at 20 g/ha: read-out: Post-emergence effect at 20 g/ha against ABUTH in %
In short: (§1)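 Visual rating, about 3 weeks post-spray, relative to untreated plants: 100% activity means plants died, 0% means no difference from control. Plants in sandy loam were treated at one-leaf stage (2–3 weeks after sowing) with compound as WP or EC in water, 0.5% additive, 600 l/ha.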

[2] = system: Alopecurus myosuroides (ALOMY); experiment: as above; conditions: for pest or weed control at 20 g/ha: Alopecurus myosuroides, 504 h, read-out: Post-emergence effect at 20 g/ha against ALOMY in %
In short: as §1

[3] = system: Amaranthus retroflexus (AMARE); experiment: as above; conditions: Amaranthus retroflexus, 504 h; for pest or weed control at 1.25 g/ha: read-out: Post-emergence effect at 1.25 g/ha against AMARE in %; for pest or weed control at 5 g/ha: read-out: Post-emergence effect at 5 g/ha against AMARE in %; for pest or weed control at 20 g/ha: read-out: Post-emergence effect at 20 g/ha against AMARE in %
In short: as §1

[4] = system: Bassia scoparia (KCHSC); experiment: as above
In short: as §1

[5] = system: Digitaria sanguinalis (DIGSA); experiment: as above
In short: as §1

[6] = system: Echinochloa crus-galli (ECHCG); experiment: as above; conditions: for pest or weed control at 20 g/ha: Echinochloa crus-galli, 504 h, read-out: Post-emergence effect at 20 g/ha against ECHCG in %
In short: as §1

[7] = system: Pharbitis purpurea (PHBPU); experiment: as above; conditions: for pest or weed control at 5 g/ha / pest or weed control at 20 g/ha: Ipomoea purpurea, 504 h; for pest or weed control at 5 g/ha: read-out: Post-emergence effect at 5 g/ha against PHBPU in %; for pest or weed control at 20 g/ha: read-out: Post-emergence effect at 20 g/ha against PHBPU in %
In short: as §1

[8] = system: Polygonum convolvulus (POLCO); experiment: as above; conditions: Fallopia convolvulus, 504 h; for pest or weed control at 5 g/ha: read-out: Post-emergence effect at 5 g/ha against POLCO in %; for pest or weed control at 20 g/ha: read-out: Post-emergence effect at 20 g/ha against POLCO in %
In short: as §1

[9] = system: Setaria viridis (SETVI); experiment: as above; conditions: for pest or weed control at 5 g/ha / pest or weed control at 20 g/ha: Setaria viridis, 504 h; for pest or weed control at 5 g/ha: read-out: Post-emergence effect at 5 g/ha against SETVI in %; for pest or weed control at 20 g/ha: read-out: Post-emergence effect at 20 g/ha against SETVI in %
In short: as §1

[10] = system: Tripleurospermum inodorum (MATIN); experiment: as above; conditions: Tripleurospermum inodorum, 504 h, 20 g/ha, read-out: Post-emergence effect at 20 g/ha against MATIN in %
In short: as §1

[11] = system: Veronica persica (VERPE); experiment: as above; conditions: for pest or weed control at 5 g/ha / pest or weed control at 20 g/ha: Veronica persica, 504 h; for pest or weed control at 5 g/ha: read-out: Post-emergence effect at 5 g/ha against VERPE in %; for pest or weed control at 20 g/ha: read-out: Post-emergence effect at 20 g/ha against VERPE in %
In short: as §1

[12] = system: Viola tricolor (VIOTR); experiment: as above; conditions: for pest or weed control at 20 g/ha: Viola tricolor, 504 h, read-out: Post-emergence effect at 20 g/ha against VIOTR in %
In short: as §1

[13] = system: Triticum aestivum (TRZAS); experiment: Post-emergence crop plant compatibility, greenhouse pot test; conditions: Triticum aestivum, in vivo
In short: (§2)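 Visual % damage scores were taken roughly 3 weeks after treatment, relative to untreated plants, where 100% means plants died and 0% means no difference. Plants received aqueous sprays (WP or EC, 0.5% additive, 600 l/ha) on green parts at the one-leaf stage, 2–3 weeks after sowing.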

[14] = system: harmful plants; experiment: Post-emergence herbicidal action, summary statements over several weeds; conditions: 20 g or less per hectare, ALOMY, ECHCG, AVEFA, VERPE
Experimental: (§3) Seeds of monocotyledonous and dicotyledonous weeds and crop plants were placed in sandy loam in plastic or wood-fibre pots, covered with soil and cultivated in a greenhouse under controlled growth conditions. 2 to 3 weeks after sowing, the test plants were treated at the one-leaf stage. The compounds of the invention, formulated in the form of wettable powders (WP) or as emulsion concentrates (EC), were then sprayed onto the green parts of the plants as aqueous suspension or emulsion with addition of 0.5% additive at a water application rate of 600 l/ha (converted). After the test plants had been kept in the greenhouse under optimum growth conditions for about 3 weeks, the activity of the preparations was rated visually in comparison to untreated controls. For example, 100% activity=the plants have died, 0% activity=like control plants.

[15] = system: crop plants; experiment: Post-emergence crop plant compatibility, summary statements over several crops; conditions: 5 g or less per hectare, ORYSA, ZEAMX, TRZAS
Experimental: as §3
The observed effects on selected crop plants are reported here in comparison to the untreated controls (values in %).

[16] = system: Zea mays (ZEAMX); experiment: Post-emergence crop plant compatibility, greenhouse pot test; conditions: Zea mays, in vivo
In short: as §2

SMILES | Post-emergence effect at 1.25 g/ha against ABUTH in % [1] [%] | pest or weed control at 5 g/ha [1] [%] | pest or weed control at 20 g/ha [1] [%] | pest or weed control at 20 g/ha [2] [%] | pest or weed control at 1.25 g/ha [3] [%] | pest or weed control at 5 g/ha [3] [%] | pest or weed control at 20 g/ha [3] [%] | Post-emergence effect at 1.25 g/ha against KCHSC in % [4] [%] | Post-emergence effect at 5 g/ha against KCHSC in % [4] [%] | Post-emergence effect at 20 g/ha against KCHSC in % [4] [%] | Post-emergence effect at 5 g/ha against DIGSA in % [5] [%] | Post-emergence effect at 20 g/ha against DIGSA in % [5] [%] | Post-emergence effect at 1.25 g/ha against ECHCG in % [6] [%] | Post-emergence effect at 5 g/ha against ECHCG in % [6] [%] | pest or weed control at 20 g/ha [6] [%] | Post-emergence effect at 1.25 g/ha against PHBPU in % [7] [%] | pest or weed control at 5 g/ha [7] [%] | pest or weed control at 20 g/ha [7] [%] | pest or weed control at 5 g/ha [8] [%] | pest or weed control at 20 g/ha [8] [%] | also measured
Cn1c(C(F)(F)F)cc(=O)n(-c2cc(Oc3ccccc3OCC(=O)OCC3CCCCC3)c(Cl)cc2F)c1=O [I.7-14] | 100 | 100 | 100 | 100 | 100 | 100 | 100 | 100 | 100 | 100 | 100 | 100 | 90 | 100 | 100 | 100 | 100 | 100 | 100 | 100 | Post-emergence effect at 1.25 g/ha against SETVI in % [9]: 100%; pest or weed control at 5 g/ha [9]: 100%; pest or weed control at 20 g/ha [9]: 100%; pest or weed control at 20 g/ha [10]: 90%; Post-emergence effect at 1.25 g/ha against VERPE in % [11]: 100%; VERPE (efficacy in %) ([11]; Table B4 comparison, application rate 1.25 g/ha): 100%; pest or weed control at 5 g/ha [11]: 100%; pest or weed control at 20 g/ha [11]: 100%; Post-emergence effect at 1.25 g/ha against VIOTR in % [12]: 100%; Post-emergence effect at 5 g/ha against VIOTR in % [12]: 100%; pest or weed control at 20 g/ha [12]: 100%; Post-emergence effect at 1.25 g/ha against TRZAS in % [13]: 20%; herbicidal efficacy by comparison with a-27, a-29 or a generically encompassed structure (WO2002/098227) [14]: distinctly improved herbicidal efficacy; compatibility with crop plants by comparison with a-27, a-29 or a generically encompassed structure (WO2002/098227) [15]: distinctly improved compatibility
Cn1c(C(F)(F)F)cc(=O)n(-c2cc(Oc3ccccc3OCC(=O)OCC3CCCCCC3)c(Cl)cc2F)c1=O [I.7-16] | 80 | 100 | 100 | 100 | 100 | 100 | 100 | 100 | 100 | 100 | 100 | 100 | 100 | 100 | 100 | 80 | 100 | 100 | 100 | 100 | Post-emergence effect at 5 g/ha against ALOMY in % ([2]; 5 g/ha): 90%; Post-emergence effect at 1.25 g/ha against DIGSA in % ([5]; 1.25 g/ha): 90%; ECHCG (efficacy in %) ([6]; Table B5 comparison, application rate 1.25 g/ha): 100%; Post-emergence effect at 1.25 g/ha against SETVI in % [9]: 100%; pest or weed control at 5 g/ha [9]: 100%; pest or weed control at 20 g/ha [9]: 100%; pest or weed control at 20 g/ha [10]: 90%; Post-emergence effect at 1.25 g/ha against VERPE in % [11]: 80%; pest or weed control at 5 g/ha [11]: 100%; pest or weed control at 20 g/ha [11]: 100%; Post-emergence effect at 1.25 g/ha against VIOTR in % [12]: 100%; Post-emergence effect at 5 g/ha against VIOTR in % [12]: 100%; pest or weed control at 20 g/ha [12]: 100%; Post-emergence effect at 1.25 g/ha against TRZAS in % [13]: 10%; Post-emergence effect at 20 g/ha against TRZAS in % [13]: 20%; Post-emergence effect at 1.25 g/ha against ZEAMX in % [16]: 20%; herbicidal efficacy by comparison with a-27, a-29 or a generically encompassed structure (WO2002/098227) [14]: distinctly improved herbicidal efficacy; compatibility with crop plants by comparison with a-27, a-29 or a generically encompassed structure (WO2002/098227) [15]: distinctly improved compatibility
